Measured values from patent US10315992B2, “Tetracyline compounds” (Tetraphase Pharmaceuticals, Inc., priority 2012, dated 2019).
In brackets after ≈: the same amount, converted by molar mass. Read-outs that look alike come from different tables or passages of the source.

What was measured:
[1] = test system: Enterobacter cloacae EC108 (ATCC 13047); test: MIC assay, EC108; format: cell-based; settings: ATCC13047, E. cloacae ATCC 13047, Table 4, read-out: MIC ECI 108 13047
[2] = test system: Stenotrophomonas maltophilia SM256 (cystic fibrosis isolate, MDR); test: MIC assay, SM256; format: cell-based; settings: control compounds
[3] = test system: Klebsiella pneumoniae KP457 (2009 ESBL+, CTX-M, OXA)
[4] = test system: Enterococcus faecalis EF103 (ATCC 29212); test: MIC assay, EF103; format: cell-based; settings: ATCC29212, E. faecalis ATCC 29212, Table 4, read-out: MIC EF 103 29212
[5] = test system: Staphylococcus aureus SA191 (HA-MRSA, tetracycline-resistant); test: MIC assay, SA191; format: cell-based; settings: S. aureus HA-MRSA, tetracycline-resistant, Table 5, read-out: MIC SA 191
[6] = test system: Haemophilus influenzae HI262 (tetracycline-resistant, ampicillin-resistant); test: MIC assay, HI262; format: cell-based; settings: H. influenzae tetracycline-resistant, Table 5, read-out: MIC HI 262 33929
[7] = test system: Pseudomonas aeruginosa PA673 (2009 urine isolate); test: MIC assay, PA673; format: cell-based; settings: control compounds
[8] = test system: Enterococcus faecium EF404 (blood isolate, tet(M)); test: MIC assay, EF404; format: cell-based
[9] = test system: Staphylococcus aureus SA100 (ATCC 13709, MSSA, Smith strain); test: MIC assay, SA100; format: cell-based; settings: S. aureus ATCC 13709, MSSA, Table 4, read-out: MIC SA 100 13709
PA 689 = test: MIC assay, PA689; settings: Pseudomonas aeruginosa, read-out: MIC PA 689
Protocol: (§3) MICs were determined according to the Clinical and Laboratory Standards Institute (CLSI) guidances (e.g., CLSI. Performance standards for antimicrobial susceptibility testing; nineteenth information supplement. CLSI document M100-S19, CLSI, 940 West Valley Road, Suite 1400, Wayne, Pa. 19087-1898, USA, 2009). Briefly, frozen bacterial strains were thawed and subcultured onto Mueller Hinton Broth (MHB) or other appropriate media (Streptococcus requires blood and Haemophilus requires hemin and NAD). Following incubation overnight, the strains were subcultured onto Mueller Hinton Agar and again incubated overnight. […] Isolated colonies were selected to prepare a starting inoculum equivalent to a 0.5 McFarland standard. […] Test compounds were prepared by dilution in sterile water to a final concentration of 5.128 mg/mL. Antibiotics (stored frozen, thawed and used within 3 hours of thawing) and compounds were further diluted to the desired working concentrations.
(§4) The assays were run as follows. Fifty μL of MHB was added to wells 2-12 of a 96-well plate. One hundred μL of appropriately diluted antibiotics was added to well 1. Fifty μL of antibiotics was removed from well 1 and added to well 2 and the contents of well 2 mixed by pipetting up and down five times. Fifty μL of the mixture in well 2 was removed and added to well 3 and mixed as above. Serial dilutions were continued in the same manner through well 12. Fifty μL was removed from well 12 so that all contained 50 μL. Fifty μL of the working inoculum was then added to all test wells. A growth control well was prepared by adding 50 μL of working inoculum and 50 μL of MHB to an empty well. The plates were then incubated at 37° C. overnight, removed from the incubator and each well was read on a plate reading mirror. The lowest concentration (MIC) of test compound that inhibited the growth of the bacteria was recorded.

[10] = test system: Escherichia coli EC155 (tet(A)); test: MIC assay, EC155; format: cell-based
[11] = test system: Staphylococcus aureus SA161 (HA-MRSA, tet(M)); test: MIC assay, SA161; format: cell-based; settings: S. aureus HA-MRSA, tet(M); Table 5
[12] = test system: Moraxella catarrhalis MC205 (ATCC 8176); test: MIC assay, MC205; format: cell-based; settings: ATCC8176, M. catarrhalis ATCC 8176, Table 5, read-out: MIC MC 205 8176
[13] = test system: Enterococcus faecalis EF327 (wound isolate, tet(M)); test: MIC assay, EF327; format: cell-based
[14] = test system: Escherichia coli EC107 (ATCC 25922); test: MIC assay, EC107; format: cell-based
[15] = test system: Enterobacter cloacae EC603 (urine isolate); test: MIC assay, EC603; format: cell-based; settings: control compounds
PA 884 35151 = test: MIC assay, PA884; settings: Pseudomonas aeruginosa, read-out: MIC PA 884 351 51
Protocol: as §3, §4

[16] = test system: Acinetobacter baumannii AB250 (cystic fibrosis isolate, MDR); test: MIC assay, AB250; format: cell-based; settings: control compounds
[17] = test system: Proteus mirabilis PM385 (urine ESBL+ isolate); test: MIC assay, PM385; format: cell-based
EC 880 ipxC = test: MIC assay, EC880; format: cell-based
From the text: (§1) Minimum Inhibitory Concentration (MIC) Assay
(§2) The assays were run as follows.

[18] = test system: Staphylococcus aureus SA158 (tetracycline-resistant tet(K)); test: MIC assay, SA158; format: cell-based
EC 882 imp = test: MIC assay, EC882; format: cell-based
From the text: as §1, §2

[19] = test system: Proteus mirabilis PM112 (ATCC 35659); test: MIC assay, PM112; format: cell-based; settings: ATCC35659, P. mirabilis ATCC 35659, Table 5, read-out: MIC PM 112 35659
[20] = test system: Enterococcus faecalis EF159 (tet(M)); test: MIC assay, EF159; format: cell-based; settings: E. faecalis tet(M), Table 4, read-out: MIC EF 159 tetM
[21] = test system: Streptococcus pneumoniae SP160 (tet(M)); test: MIC assay, SP160; format: cell-based

Compound `CN(C)c1ccc(O)c2c1C[C@H]1C[C@H]3[C@H](N(C)C)C(O)=C(C(N)=O)C(=O)[C@@]3(O)C(O)=C1C2=O` [Minocycline, minocycline] has an MIC [1] of 2 µg/mL (≈ 4.37 µM), an MIC ([2]; c9, strain SM256 inferred, read-out: MIC) of 0.5 µg/mL (≈ 1.09 µM) and an MIC ([2]; numeric, read-out: MIC SM 256) of 0.5 µg/mL (≈ 1.09 µM). The “MIC KP 457” value [3] was 8 µg/mL (≈ 17.5 µM), the “MIC KP 457 CTX- M-15” value [3] was 8 µg/mL (≈ 17.5 µM) and the “MIC KP 457 CTX-M-15” value [3] was 8 µg/mL (≈ 17.5 µM). For the same compound, the MIC [4] was 1 µg/mL (≈ 2.19 µM), the MIC [5] was 8 µg/mL (≈ 17.5 µM) and the MIC [6] was 1 µg/mL (≈ 2.19 µM). The MIC ([7]; c3, strain PA673 inferred, read-out: MIC) was 32 µg/mL (≈ 69.9 µM), the MIC ([7]; numeric, read-out: MIC PA 673) was 33 µg/mL (≈ 72.1 µM) and the MIC ([8]; E. faecium tet(M), Table 6, read-out: MIC EF 404 tet M) was 8 µg/mL (≈ 17.5 µM). For the same compound, the MIC ([8]; control compounds, numeric, read-out: MIC EF 404 tetM) was 8 µg/mL (≈ 17.5 µM), the MIC [9] was 0.063 µg/mL (≈ 0.138 µM) and the MIC (PA 689) was 8 µg/mL (≈ 17.5 µM). The MIC ([10]; Escherichia coli, E. coli tet(A), Table 7, read-out: MIC EC 155 tetA) was 8 µg/mL (≈ 17.5 µM), the “MIC EC 155 tetA” value ([10]; control compounds) was 8 µg/mL (≈ 17.5 µM) and the “MIC SA 161 tetM” value [11] was 8 µg/mL (≈ 17.5 µM). For the same compound, the MIC [12] was 0.02 µg/mL (≈ 0.0437 µM), the MIC ([13]; E. faecalis tet(M), Table 6, read-out: MIC EF 327 tet M) was 32 µg/mL (≈ 69.9 µM) and the MIC ([13]; control compounds, numeric, read-out: MIC EF 327 tetM) was 32 µg/mL (≈ 69.9 µM). The MIC ([14]; ATCC25922, E. coli ATCC 25922, Table 6, read-out: MIC EC 107 259 22) was 0.5 µg/mL (≈ 1.09 µM), the MIC ([14]; ATCC25922, E. coli ATCC 25922, Table 7, read-out: MIC EC 07 25922) was 0.5 µg/mL (≈ 1.09 µM) and the MIC ([14]; ATCC25922, control compounds, numeric, read-out: MIC EC 107 25922) was 0.5 µg/mL (≈ 1.09 µM). The MIC ([15]; c7, strain EC603 inferred, read-out: MIC) was 33 µg/mL (≈ 72.1 µM), the MIC ([15]; numeric, read-out: MIC EC 603 tetA) was 33 µg/mL (≈ 72.1 µM) and the MIC (PA 884 35151) was 1 µg/mL (≈ 2.19 µM). It also gave an MIC ([16]; c8, strain AB250 inferred, read-out: MIC) of 8 µg/mL (≈ 17.5 µM), an MIC ([16]; numeric, read-out: MIC AB 250) of 8 µg/mL (≈ 17.5 µM) and an MIC ([17]; P. mirabilis ESBL+, Table 6, read-out: MIC PM 385) of 16 µg/mL (≈ 35 µM). It also gave an MIC ([17]; control compounds, numeric, read-out: MIC PM 385 CTX-M15) of 16 µg/mL (≈ 35 µM), an MIC (EC 880 ipxC; Table 6, read-out: MIC EC 880 ipx C) of 0.015 µg/mL (≈ 0.0328 µM) and an MIC (EC 880 ipxC; Table 7, read-out: MIC EC 880 ipxC) of 0.02 µg/mL (≈ 0.0437 µM). The MIC ([18]; S. aureus tet(K), Table 4, read-out: MIC SA 158 tetK) was 0.031 µg/mL (≈ 0.0678 µM), the MIC ([18]; S. aureus tet(K), Table 5, read-out: MIC SA 158 tetK) was 0.03 µg/mL (≈ 0.0656 µM) and the MIC ([18]; S. aureus tet(K), Table 6, read-out: MIC SA 158 tetK) was 0.03 µg/mL (≈ 0.0656 µM). The MIC ([18]; S. aureus tet(K), Table 7, read-out: MIC SA 158 tetK) was 0.03 µg/mL (≈ 0.0656 µM), the MIC ([18]; control compounds, numeric, read-out: MIC SA 158 tetK) was 0.03 µg/mL (≈ 0.0656 µM) and the MIC ([18]; control compounds, read-out: MIC SA 158 tetK) was 0.03 µg/mL (≈ 0.0656 µM). For the same compound, the MIC (EC 882 imp; Table 6, read-out: MIC EC 882 imp) was 0.015 µg/mL (≈ 0.0328 µM), the MIC (EC 882 imp; read-out: MIC EC 882 imp, Table 7) was 0.02 µg/mL (≈ 0.0437 µM) and the MIC [19] was 8 µg/mL (≈ 17.5 µM). For the same compound, the MIC [20] was 16 µg/mL (≈ 35 µM), the MIC ([21]; S. pneumoniae tet(M), Table 6, read-out: MIC SP 160 tet M) was 2 µg/mL (≈ 4.37 µM) and the MIC ([21]; control compounds, numeric, read-out: MIC SP 160 tetM) was 2 µg/mL (≈ 4.37 µM).
